Measurements published in patent US20100160454A1, “ANTIMICROBIAL AGENTS, COMPOSITIONS AND PRODUCTS CONTAINING THE SAME, AND METHODS OF USING THE COMPOSITIONS AND PRODUCTS” (Eastman Chemical Company, priority 2008, published 2010).

Key:
Assay in all cases: Microbiological challenge testing in BPW broth, graded subculture counts
Assay type in all cases: cell-based
[1] = tested on: Pseudomonas aeruginosa Wild type; details: P. aeruginosa
Method in brief: (§1)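 Serial 1:10 dilutions were made in pH 7.2 phosphate buffer and spread-plated onto PCA, and colonies were counted after 48 h or more at 35 °C. In the challenge, BPW–dextrose tubes containing the test material received inoculum at 10^5–10^6 CFU/mL at time zero. Controls without test material served as reference.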

[2] = tested on: Staphylococcus aureus ATCC 25923; details: S. aureus
Method in brief: as §1

[3] = tested on: Staphylococcus epidermidis ATCC 12228
Method in brief: as §1

[4] = tested on: Streptococcus mutans ATCC 35668
Method in brief: as §1

OCC1CCCC(CO)C1 (stereo not drawn) [1,3-CHDM, 1,3-cyclohexanedimethanol]
Grade ([1]; 2.5% (wt/vol), 3 day): 4 (1000 to 10,000 colonies countable (thus 10,000 CFU/mL to 100,000 CFU/mL)) | Grade ([1]; 2.5% (wt/vol), 13 day): 4 (1000 to 10,000 colonies countable (thus 10,000 CFU/mL to 100,000 CFU/mL)) | Grade ([1]; 2.5% (wt/vol), 30 day): 4 (1000 to 10,000 colonies countable (thus 10,000 CFU/mL to 100,000 CFU/mL)) | Grade ([1]; 5.0% (wt/vol), 3 day): 4 (1000 to 10,000 colonies countable (thus 10,000 CFU/mL to 100,000 CFU/mL)) | Grade ([1]; 5.0% (wt/vol), 13 day): 4 (1000 to 10,000 colonies countable (thus 10,000 CFU/mL to 100,000 CFU/mL)) | Grade ([1]; 5.0% (wt/vol), 30 day): 4 (1000 to 10,000 colonies countable (thus 10,000 CFU/mL to 100,000 CFU/mL)) | Grade ([2]; 0.5% (wt/vol), 3 day): 5 (More than 10,000 colonies estimated (thus more than 100,000 CFU/mL)) | Grade ([2]; 0.5% (wt/vol), 14 day): 5 (More than 10,000 colonies estimated (thus more than 100,000 CFU/mL)) | Grade ([2]; 0.5% (wt/vol), 30 day): 5 (More than 10,000 colonies estimated (thus more than 100,000 CFU/mL)) | Grade ([2]; 1.25% (wt/vol), 3 day): 4 (1000 to 10,000 colonies countable (thus 10,000 CFU/mL to 100,000 CFU/mL)) | Grade ([2]; 1.25% (wt/vol), 14 day): 4 (1000 to 10,000 colonies countable (thus 10,000 CFU/mL to 100,000 CFU/mL)) | Grade ([2]; 1.25% (wt/vol), 30 day): 4 (1000 to 10,000 colonies countable (thus 10,000 CFU/mL to 100,000 CFU/mL)) | Grade ([2]; 2.5% (wt/vol), 3 day): 4 (1000 to 10,000 colonies countable (thus 10,000 CFU/mL to 100,000 CFU/mL)) | Grade ([2]; 2.5% (wt/vol), 14 day): 4 (1000 to 10,000 colonies countable (thus 10,000 CFU/mL to 100,000 CFU/mL)) | Grade ([2]; 2.5% (wt/vol), 30 day): 4 (1000 to 10,000 colonies countable (thus 10,000 CFU/mL to 100,000 CFU/mL)) | Grade ([2]; 5.0% (wt/vol), 3 day): 4 (1000 to 10,000 colonies countable (thus 10,000 CFU/mL to 100,000 CFU/mL)) | Grade ([2]; 5.0% (wt/vol), 14 day): 3 (100 to 1000 colonies (thus 1000 to 10,000 CFU/mL)) | Grade ([2]; 5.0% (wt/vol), 30 day): 4 (1000 to 10,000 colonies countable (thus 10,000 CFU/mL to 100,000 CFU/mL)) | S. epidermidis growth grade, 3 day ([3]; 0.5% weight/volume): 4 (1000 to 10,000 colonies countable (thus 10,000 CFU/mL to 100,000 CFU/mL)) | S. epidermidis growth grade, 13 day ([3]; 0.5% weight/volume): 4 (1000 to 10,000 colonies countable (thus 10,000 CFU/mL to 100,000 CFU/mL)) | S. epidermidis growth grade, 30 day ([3]; 0.5% weight/volume): 4 (1000 to 10,000 colonies countable (thus 10,000 CFU/mL to 100,000 CFU/mL)) | S. epidermidis growth grade, 3 day ([3]; 1.25% weight/volume): 4 (1000 to 10,000 colonies countable (thus 10,000 CFU/mL to 100,000 CFU/mL)) | S. epidermidis growth grade, 13 day ([3]; 1.25% weight/volume): 3.7 | S. epidermidis growth grade, 30 day ([3]; 1.25% weight/volume): 4 (1000 to 10,000 colonies countable (thus 10,000 CFU/mL to 100,000 CFU/mL)) | S. epidermidis growth grade, 3 day ([3]; 2.5% weight/volume): 4 (1000 to 10,000 colonies countable (thus 10,000 CFU/mL to 100,000 CFU/mL)) | S. epidermidis growth grade, 13 day ([3]; 2.5% weight/volume): 3 (100 to 1000 colonies (thus 1000 to 10,000 CFU/mL)) | S. epidermidis growth grade, 30 day ([3]; 2.5% weight/volume): 4 (1000 to 10,000 colonies countable (thus 10,000 CFU/mL to 100,000 CFU/mL)) | S. epidermidis growth grade, 3 day ([3]; 5.0% weight/volume): 2 (52 to 100 colonies counted (thus 520 to 1000 CFU/mL)) | S. epidermidis growth grade, 13 day ([3]; 5.0% weight/volume): 1 (0 to 51 colonies counted (thus 10 to 510 CFU/mL based on 0.1-mL sample)) | S. epidermidis growth grade, 30 day ([3]; 5.0% weight/volume): 3 (100 to 1000 colonies (thus 1000 to 10,000 CFU/mL)) | S. mutans growth grade, 3 day ([4]; 0.5% weight/volume): 5 (More than 10,000 colonies estimated (thus more than 100,000 CFU/mL)) | S. mutans growth grade, 13 day ([4]; 0.5% weight/volume): 4 (1000 to 10,000 colonies countable (thus 10,000 CFU/mL to 100,000 CFU/mL)) | S. mutans growth grade, 30 day ([4]; 0.5% weight/volume): 4 (1000 to 10,000 colonies countable (thus 10,000 CFU/mL to 100,000 CFU/mL)) | S. mutans growth grade, 3 day ([4]; 1.25% weight/volume): 4 (1000 to 10,000 colonies countable (thus 10,000 CFU/mL to 100,000 CFU/mL)) | S. mutans growth grade, 13 day ([4]; 1.25% weight/volume): 4 (1000 to 10,000 colonies countable (thus 10,000 CFU/mL to 100,000 CFU/mL)) | S. mutans growth grade, 30 day ([4]; 1.25% weight/volume): 4 (1000 to 10,000 colonies countable (thus 10,000 CFU/mL to 100,000 CFU/mL)) | S. mutans growth grade, 3 day ([4]; 2.5% weight/volume): 4 (1000 to 10,000 colonies countable (thus 10,000 CFU/mL to 100,000 CFU/mL)) | S. mutans growth grade, 13 day ([4]; 2.5% weight/volume): 4 (1000 to 10,000 colonies countable (thus 10,000 CFU/mL to 100,000 CFU/mL)) | S. mutans growth grade, 30 day ([4]; 2.5% weight/volume): 4 (1000 to 10,000 colonies countable (thus 10,000 CFU/mL to 100,000 CFU/mL)) | S. mutans growth grade, 3 day ([4]; 5.0% weight/volume): 2 (52 to 100 colonies counted (thus 520 to 1000 CFU/mL)) | S. mutans growth grade, 13 day ([4]; 5.0% weight/volume): 0 | S. mutans growth grade, 30 day ([4]; 5.0% weight/volume): 0
